Results reported in patent US20130303465A1, “Cylodextrin Complexation Methods for Formulating Peptide Proteasome Inhibitors” (ONYX THERAPEUTICS, INC., priority 2012, published 2013).

Columns and labels:
[1] = Solubility of carfilzomib as a function of SBECD concentration, pH and temperature; type: physicochemical; conditions: SBECD solutions, citric acid 30 mM, pH 1.5 and pH 3.5, 5° C. and 25° C., 24 hours to equilibrate, FIG. 6
Method: The experiments at acidic conditions below the target pH values and titrated to pH 1.5 or 3.5 using aqueous sodium hydroside solution. Measurements of solubilized concentration were those from samples analyzed after 24 hours of time to equilibrate.

[2] = Slurry complexation of CFZ-API with SBECD and citric acid: dissolved complexed concentration; type: physicochemical
Method: In a 525 L stainless steel jacketed cooled tank controlled to 2° C.-8° C., a suspension of 2.0 kg carfilzomib-API (CFZ-API), 246 kg water for injection (WFI), and 100 kg sulfobutylether beta-cyclodextrin (SBECD) was prepared. Specifically, in the 525 L stainless steel jacketed cooled tank controlled to 2° C.-8° C., 100 kg SBECD was dissolved in 246 kg WFI. The Carfilzomib suspension was then prepared using 2.0 kg of CFZ-API. Mixing was performed using an impeller mixer to maintain suspension of the CFZ-API solids and dissolve the SBECD. In the same vessel, a probe style rotor-stator high shear mixer (homogenizer) was used as well as the low shear impeller. The high shear mixer was operated for approximately 1 hour yielding an even suspension and reduction of particle size for any larger primary particles or agglomerated API. After a suspension was achieved, 1.96 kg of citric acid was added as a 16% aqueous solution. The pH of the solution was then lowered inducing partial solubilization of the CFZ-API followed by and complexation due to the presence of SBECD. Mixing was continued for a further 24 hours with both the impeller and the high shear mixer and a dissolved concentration of CFZ-API of greater than 5.1 mg/mL was achieved. […]

[3] = physchem

- solubility difference between low and high temperature [1]: No significant differences in solubility
- effect of higher SBECD concentration on solubility ([2]; FIG. 3): increased the solubility
- dissolved concentration of CFZ-API ([2]; SBECD/WFI suspension plus citric acid, mixing 24 hours, 2-8° C., 400 L batch): greater than 5.1 mg/mL
- solubility [3]: < 10 µg/mL
SMILES: CC(C)C[C@H](NC(=O)[C@H](CCc1ccccc1)NC(=O)CN1CCOCC1)C(=O)N[C@@H](Cc1ccccc1)C(=O)N[C@@H](CC(C)C)C(=O)[C@@]1(C)CO1 [carfilzomib]
